Measured values taken from PubChem BioAssay (NCI).
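Five concentrations, 48 hours, 96-well plates. Abbreviation: GI50, concentration required for 50% inhibition of growth. At the TGI there is no net growth.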

Columns and labels:
Assay in all cases: NCI anticancer screen, dose series, 48 h
786-0 renal = tested on: 786-0 renal
A549 NSCLC = tested on: A549 NSCLC
ACHN renal = tested on: ACHN renal
BT-549 breast = tested on: BT-549 breast
CAKI-1 renal = tested on: CAKI-1 renal
COLO 205 colon = tested on: COLO 205 colon
DU-145 prostate = tested on: DU-145 prostate
EKVX NSCLC = tested on: EKVX NSCLC
HCC-2998 colon = tested on: HCC-2998 colon
HCT-116 colon = tested on: HCT-116 colon
HCT-15 colon = tested on: HCT-15 colon
HL-60(TB) leukemia = tested on: HL-60(TB) leukemia
HOP-62 NSCLC = tested on: HOP-62 NSCLC
HOP-92 NSCLC = tested on: HOP-92 NSCLC
HS 578T breast = tested on: HS 578T breast
IGROV1 ovarian = tested on: IGROV1 ovarian
K-562 leukemia = tested on: K-562 leukemia
KM12 colon = tested on: KM12 colon
LOX IMVI melanoma = tested on: LOX IMVI melanoma
M14 melanoma = tested on: M14 melanoma
MCF7 breast = tested on: MCF7 breast
MDA-MB-231 breast = tested on: MDA-MB-231 breast
MDA-MB-435 = tested on: MDA-MB-435
NCI-H23 lung = tested on: NCI-H23 lung
NCI-H460 lung = tested on: NCI-H460 lung
NCI-H522 lung = tested on: NCI-H522 lung

`Nc1ccccc1C#C/C=C\C#Cc1ccccc1C#CCO` gave a GI50 (786-0 renal) of 6.39 µM, a TGI (786-0 renal) of 17.8 µM and a GI50 (A549 NSCLC) of 11.2 µM. For the same compound, the TGI (A549 NSCLC) was over 50 µM, the GI50 (ACHN renal) was 6.11 µM and the TGI (ACHN renal) was 18.3 µM. It also gave a GI50 (BT-549 breast) of 10.9 µM, a TGI (BT-549 breast) of 41.6 µM and a GI50 (CAKI-1 renal) of 4.1 µM. The TGI (CAKI-1 renal) was 18 µM, the GI50 (COLO 205 colon) was 11.8 µM and the TGI (COLO 205 colon) was 31.6 µM. It also gave a GI50 (DU-145 prostate) of 15.8 µM, a TGI (DU-145 prostate) of over 50 µM and a GI50 (EKVX NSCLC) of 12 µM. The TGI (EKVX NSCLC) was over 50 µM, the GI50 (HCC-2998 colon) was 2.95 µM and the TGI (HCC-2998 colon) was 10.6 µM. It also gave a GI50 (HCT-116 colon) of 8.3 µM, a TGI (HCT-116 colon) of 24.7 µM and a GI50 (HCT-15 colon) of 4.92 µM. The TGI (HCT-15 colon) was 18.3 µM, the GI50 (HL-60(TB) leukemia) was 8.49 µM and the TGI (HL-60(TB) leukemia) was over 50 µM. The GI50 (HOP-62 NSCLC) was 8.35 µM, the TGI (HOP-62 NSCLC) was over 50 µM and the GI50 (HOP-92 NSCLC) was 11.9 µM. The TGI (HOP-92 NSCLC) was over 50 µM, the GI50 (HS 578T breast) was 8.89 µM and the TGI (HS 578T breast) was 27.8 µM. For the same compound, the GI50 (IGROV1 ovarian) was 0.382 µM, the TGI (IGROV1 ovarian) was over 50 µM and the GI50 (K-562 leukemia) was 11.1 µM. The TGI (K-562 leukemia) was over 50 µM, the GI50 (KM12 colon) was 1.81 µM and the TGI (KM12 colon) was 7.8 µM. The GI50 (LOX IMVI melanoma) was 1.36 µM, the TGI (LOX IMVI melanoma) was 8.97 µM and the GI50 (M14 melanoma) was 7.68 µM. For the same compound, the TGI (M14 melanoma) was 26 µM, the GI50 (MCF7 breast) was 7.87 µM and the TGI (MCF7 breast) was over 50 µM. The GI50 (MDA-MB-231 breast) was 7.73 µM, the TGI (MDA-MB-231 breast) was 28.7 µM and the GI50 (MDA-MB-435) was 1.51 µM. It also gave a TGI (MDA-MB-435) of 4.21 µM, a GI50 (NCI-H23 lung) of 1.83 µM and a TGI (NCI-H23 lung) of 6.9 µM. It also gave a GI50 (NCI-H460 lung) of 8.73 µM, a TGI (NCI-H460 lung) of 22 µM and a GI50 (NCI-H522 lung) of 11.8 µM. The TGI (NCI-H522 lung) was 28.2 µM.
